From publication PMC7503464 (Molecules, 2020)

How the values were obtained:
Assay in all cases: biochemical
[1] = target: T1, dihydrofolate reductase (DHFR; wt-DHFR and midW mutants) (Escherichia coli, UniProt P0ABQ4, W133F/W22F/W30F/W74F)
T1 construct: gene folA
Text: (§1) isothermal titration calorimetry on dihydrofolate reductase (DHFR; wt-DHFR and midW mutants)

[2] = target: T2, dihydrofolate reductase (DHFR; wt-DHFR and midW mutants) (Escherichia coli, UniProt P0ABQ4, W22F/W30F/W47F/W74F)
T2 construct: gene folA
Text: as §1

[3] = target: T3, dihydrofolate reductase (DHFR; wt-DHFR and midW mutants) (Escherichia coli, UniProt P0ABQ4, W133F/W22F/W30F/W47F)
T3 construct: gene folA
Text: as §1

[4] = target: T4, dihydrofolate reductase (DHFR; wt-DHFR and midW mutants) (Escherichia coli, UniProt P0ABQ4, W133F/W22F/W47F/W74F)
T4 construct: gene folA
Text: as §1

[5] = target: T5, dihydrofolate reductase (DHFR; wt-DHFR and midW mutants) (Escherichia coli, UniProt P0ABQ4, W133F/W30F/W47F/W74F)
T5 construct: gene folA
Text: as §1

Compound `Nc1nc2ncc(CNc3ccc(C(=O)N[C@@H](CCC(=O)O)C(=O)O)cc3)nc2c(=O)[nH]1` [folate] has a Kd [1] of 12 µM, a Kd [2] of 9.5 µM and a Kd [3] of 8.4 µM. It also gave a Kd [4] of 4.5 µM and a Kd [5] of 3.7 µM.
